Each molecule was assayed against Glutamate carboxypeptidase 2 (Homo sapiens, UniProt Q04609) (assay: Inhibition of Glutamate carboxypeptidase II).
Glutamate carboxypeptidase 2, sequence (Q04609 whole entry): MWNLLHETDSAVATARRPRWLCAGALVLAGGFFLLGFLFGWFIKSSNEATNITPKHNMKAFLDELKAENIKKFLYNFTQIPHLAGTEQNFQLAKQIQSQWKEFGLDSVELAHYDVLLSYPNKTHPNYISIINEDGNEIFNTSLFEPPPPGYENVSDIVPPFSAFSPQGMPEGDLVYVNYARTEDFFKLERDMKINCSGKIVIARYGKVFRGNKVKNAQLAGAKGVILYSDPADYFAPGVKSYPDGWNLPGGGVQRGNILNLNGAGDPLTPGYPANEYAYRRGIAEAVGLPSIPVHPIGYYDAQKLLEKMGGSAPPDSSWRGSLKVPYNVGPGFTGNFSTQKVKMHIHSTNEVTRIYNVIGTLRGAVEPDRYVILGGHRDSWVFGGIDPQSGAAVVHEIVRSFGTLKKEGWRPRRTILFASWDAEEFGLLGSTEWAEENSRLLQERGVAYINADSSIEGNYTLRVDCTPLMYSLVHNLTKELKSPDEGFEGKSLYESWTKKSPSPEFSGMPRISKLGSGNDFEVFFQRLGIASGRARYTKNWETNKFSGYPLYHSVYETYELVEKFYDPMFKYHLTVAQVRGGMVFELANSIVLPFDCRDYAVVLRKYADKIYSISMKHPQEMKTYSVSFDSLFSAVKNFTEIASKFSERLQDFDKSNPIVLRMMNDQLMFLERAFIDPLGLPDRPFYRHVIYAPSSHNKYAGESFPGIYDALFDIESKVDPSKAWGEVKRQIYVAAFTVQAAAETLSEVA

SMILES	IC50
CC(=O)N[C@H](CC(=O)O)C(=O)NO	> 100 µM
N[C@H](CC(=O)NO)C(=O)O	> 100 µM
O=C(O)CCC(CCCC(=O)NO)C(=O)O (stereo not drawn)	0.94 µM
O=C(O)CCC(=O)NO	43 µM
O=C(O)CCC(CCC(=O)NO)C(=O)O (stereo not drawn)	1.2 µM
N[C@@H](CC(=O)NO)C(=O)O	> 100 µM
O=C(O)CCC(CP(=O)(O)Cc1c(F)c(F)c(F)c(F)c1F)C(=O)O (stereo not drawn)	0.082 µM
O=C(O)CCC(CC(=O)NO)C(=O)O (stereo not drawn)	0.22 µM
CC(=O)N[C@@H](CC(=O)O)C(=O)NO	> 100 µM
O=C(O)CCC(CC(=O)O)C(=O)O (stereo not drawn)	20 µM
N[C@@H](CCC(=O)NO)C(=O)O [GLUTAMINE HYDROXAMATE]	> 100 µM

These molecules were tested against Bacterial leucyl aminopeptidase (Vibrio proteolyticus, UniProt Q01693) (assay: Inhibition of metalloprotease from family M28, Aeromonas proteolytica aminopeptidase).
Bacterial leucyl aminopeptidase, sequence (Q01693 whole entry): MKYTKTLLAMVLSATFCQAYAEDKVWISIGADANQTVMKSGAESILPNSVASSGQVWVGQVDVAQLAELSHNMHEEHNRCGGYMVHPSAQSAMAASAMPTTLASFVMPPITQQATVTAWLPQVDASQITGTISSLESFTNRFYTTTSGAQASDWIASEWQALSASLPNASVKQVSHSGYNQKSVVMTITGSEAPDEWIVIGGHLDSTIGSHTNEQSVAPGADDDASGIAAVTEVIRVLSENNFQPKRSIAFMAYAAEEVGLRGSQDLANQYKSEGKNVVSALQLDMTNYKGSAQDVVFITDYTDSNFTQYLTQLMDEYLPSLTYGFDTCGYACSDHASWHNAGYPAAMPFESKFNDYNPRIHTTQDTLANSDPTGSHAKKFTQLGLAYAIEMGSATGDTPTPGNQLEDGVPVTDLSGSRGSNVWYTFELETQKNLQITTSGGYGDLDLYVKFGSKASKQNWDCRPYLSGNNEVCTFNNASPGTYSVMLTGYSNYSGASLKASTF

SMILES	Ki
CC(C)C[C@H](N)C(=O)NO	0.35 µM
CC(C)C[C@@H](N)C(=O)NO	0.002 µM
